Laboratory results as given in ChEMBL document CHEMBL4145687, “Novel Scaffolds for Dual Specificity Tyrosine-Phosphorylation-Regulated Kinase (DYRK1A) Inhibitors” (J Med Chem, 2018).
Calls of active or inactive are those of the source. No cut-off for these calls is given here.

What was measured:
[1] = molecular target: Dual specificity protein kinase CLK2 (Homo sapiens) (UniProt P49760); test: Inhibition of human CLK2 expressed in bacterial expression system at 10 uM
[2] = molecular target: T1, Dual specificity tyrosine-phosphorylation-regulated kinase 1A (Homo sapiens, UniProt Q13627); test: Inhibition of DYRK1A (unknown origin) assessed as remaining enzyme activity at 20 uM using DYRKtide as substrate by ATP regenerative NADH consuming assay
[3] = molecular target: T1, Dual specificity tyrosine-phosphorylation-regulated kinase 1A; test: Inhibition of EGFP-tagged DYRK1A (unknown origin) expressed in human NCI-H1299 cells expressing FLAG-tagged tau assessed as reduction in tau T212 phosphorylation at 1 to 10 uM incubated for 2 hrs by Western blot analysis; assay type: cell-based
[4] = molecular target: T1, Dual specificity tyrosine-phosphorylation-regulated kinase 1A; test: Inhibition of human DYRK1A expressed in HEK293 cells assessed as compound concentration causing 1.5 fold […] by NFAT response element-driven luciferase reporter gene assay relative to basal level; assay type: cell-based
[5] = molecular target: T1, Dual specificity tyrosine-phosphorylation-regulated kinase 1A; test: Inhibition of DYRK1A (unknown origin) using DYRKtide as substrate by ATP regenerative NADH consuming assay
[6] = molecular target: Homeodomain-interacting protein kinase 2 (Homo sapiens) (UniProt Q9H2X6); test: Inhibition of human HIPK2 expressed in mammalian expression system at 10 uM
[7] = molecular target: Glycogen synthase kinase-3 beta (Homo sapiens) (UniProt P49841); test: Inhibition of human GSK3beta expressed in mammalian expression system at 10 uM
Glycogen synthase kinase-3 beta (Homo sapiens), sequence (P49841 whole entry, looked up): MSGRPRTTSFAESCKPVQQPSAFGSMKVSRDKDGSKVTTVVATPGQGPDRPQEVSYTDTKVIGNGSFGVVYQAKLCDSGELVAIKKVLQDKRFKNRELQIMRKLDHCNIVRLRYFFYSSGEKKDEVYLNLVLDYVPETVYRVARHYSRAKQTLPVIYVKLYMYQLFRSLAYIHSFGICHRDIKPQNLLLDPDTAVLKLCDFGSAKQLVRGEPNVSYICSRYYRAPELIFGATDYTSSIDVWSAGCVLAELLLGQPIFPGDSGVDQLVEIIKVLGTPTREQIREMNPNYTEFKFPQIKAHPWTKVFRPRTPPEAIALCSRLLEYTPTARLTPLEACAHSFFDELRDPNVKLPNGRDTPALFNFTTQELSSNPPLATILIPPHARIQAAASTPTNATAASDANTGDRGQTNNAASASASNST

[8] = molecular target: Cyclin-dependent kinase 7 (Homo sapiens) (UniProt P50613); test: Inhibition of human CDK7 expressed in mammalian expression system at 10 uM
Cyclin-dependent kinase 7 (Homo sapiens), sequence (P50613 whole entry): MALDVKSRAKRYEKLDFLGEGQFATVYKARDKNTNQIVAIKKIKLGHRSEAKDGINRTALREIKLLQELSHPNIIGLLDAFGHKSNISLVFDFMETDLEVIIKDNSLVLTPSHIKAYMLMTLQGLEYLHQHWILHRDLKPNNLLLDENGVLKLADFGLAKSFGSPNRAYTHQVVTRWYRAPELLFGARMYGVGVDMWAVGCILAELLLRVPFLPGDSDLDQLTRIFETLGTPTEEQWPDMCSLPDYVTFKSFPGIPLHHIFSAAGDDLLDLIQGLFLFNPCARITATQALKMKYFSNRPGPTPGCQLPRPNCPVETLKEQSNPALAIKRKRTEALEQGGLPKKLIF

[9] = molecular target: Homeodomain-interacting protein kinase 1 (Homo sapiens) (UniProt Q86Z02); test: Inhibition of human HIPK1 expressed in mammalian expression system at 10 uM
[10] = molecular target: Glycogen synthase kinase-3 beta (Homo sapiens) (UniProt P49841); test: Inhibition of human GSK3beta expressed in mammalian expression system at 1 uM
[11] = molecular target: Glycogen synthase kinase-3 alpha (Homo sapiens) (UniProt P49840); test: Inhibition of human GSK3A expressed in bacterial expression system at 1 uM
[12] = molecular target: Dual specificity protein kinase CLK1 (Homo sapiens) (UniProt P49759); test: Inhibition of human CLK1 expressed in bacterial expression system at 1 uM
Dual specificity protein kinase CLK1 (Homo sapiens), sequence (P49759 whole entry, looked up): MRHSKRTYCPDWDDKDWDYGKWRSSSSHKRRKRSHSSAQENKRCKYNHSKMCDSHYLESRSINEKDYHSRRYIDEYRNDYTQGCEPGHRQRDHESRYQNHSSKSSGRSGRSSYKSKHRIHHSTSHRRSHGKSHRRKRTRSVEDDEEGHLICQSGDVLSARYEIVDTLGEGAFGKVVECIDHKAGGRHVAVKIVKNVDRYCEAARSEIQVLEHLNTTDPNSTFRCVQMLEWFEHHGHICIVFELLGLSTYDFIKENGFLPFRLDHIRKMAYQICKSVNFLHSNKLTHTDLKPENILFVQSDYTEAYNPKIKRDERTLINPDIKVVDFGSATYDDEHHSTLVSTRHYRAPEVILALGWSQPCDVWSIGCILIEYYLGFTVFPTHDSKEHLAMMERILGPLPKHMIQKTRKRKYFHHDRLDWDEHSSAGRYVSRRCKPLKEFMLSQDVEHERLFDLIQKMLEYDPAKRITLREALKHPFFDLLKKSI

[13] = molecular target: Serine/threonine-protein kinase mTOR (Homo sapiens) (UniProt P42345); test: Inhibition of human mTOR expressed in mammalian expression system at 10 uM
[14] = molecular target: T1, Dual specificity tyrosine-phosphorylation-regulated kinase 1A; test: Inhibition of human DYRK1A expressed in mammalian expression system at 1 uM
[15] = molecular target: T1, Dual specificity tyrosine-phosphorylation-regulated kinase 1A; test: Inhibition of human DYRK1A expressed in HEK293 cells assessed as […] at 0.1 uM by NFAT response element-driven luciferase reporter gene assay relative to harmine; assay type: cell-based
[16] = molecular target: Dual specificity tyrosine-phosphorylation-regulated kinase 1B (Homo sapiens) (UniProt Q9Y463); test: Inhibition of human DYRK1B expressed in bacterial expression system at 1 uM
[17] = molecular target: Dual specificity protein kinase CLK3 (Homo sapiens) (UniProt P49761); test: Inhibition of human CLK3 expressed in bacterial expression system at 1 uM
Dual specificity protein kinase CLK3 (Homo sapiens), sequence (P49761 whole entry, looked up): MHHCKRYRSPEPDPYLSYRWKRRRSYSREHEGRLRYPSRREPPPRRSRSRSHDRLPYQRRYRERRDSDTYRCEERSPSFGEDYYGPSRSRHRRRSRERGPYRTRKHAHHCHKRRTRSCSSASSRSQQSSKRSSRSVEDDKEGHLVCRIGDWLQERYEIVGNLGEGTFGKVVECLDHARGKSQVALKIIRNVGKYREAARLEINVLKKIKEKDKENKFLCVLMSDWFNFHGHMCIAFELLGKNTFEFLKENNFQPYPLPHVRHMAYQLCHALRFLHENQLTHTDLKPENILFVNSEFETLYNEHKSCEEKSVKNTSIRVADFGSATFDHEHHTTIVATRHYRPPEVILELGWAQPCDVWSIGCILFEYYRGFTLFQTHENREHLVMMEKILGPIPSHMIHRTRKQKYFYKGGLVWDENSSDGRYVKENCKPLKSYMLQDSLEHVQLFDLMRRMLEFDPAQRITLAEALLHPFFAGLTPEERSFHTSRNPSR

[18] = molecular target: Phosphatidylinositol 4-kinase beta (Homo sapiens) (UniProt Q9UBF8); test: Inhibition of human PIK4CB expressed in mammalian expression system at 1 uM
Phosphatidylinositol 4-kinase beta (Homo sapiens), sequence (Q9UBF8 2-816 limits assumed): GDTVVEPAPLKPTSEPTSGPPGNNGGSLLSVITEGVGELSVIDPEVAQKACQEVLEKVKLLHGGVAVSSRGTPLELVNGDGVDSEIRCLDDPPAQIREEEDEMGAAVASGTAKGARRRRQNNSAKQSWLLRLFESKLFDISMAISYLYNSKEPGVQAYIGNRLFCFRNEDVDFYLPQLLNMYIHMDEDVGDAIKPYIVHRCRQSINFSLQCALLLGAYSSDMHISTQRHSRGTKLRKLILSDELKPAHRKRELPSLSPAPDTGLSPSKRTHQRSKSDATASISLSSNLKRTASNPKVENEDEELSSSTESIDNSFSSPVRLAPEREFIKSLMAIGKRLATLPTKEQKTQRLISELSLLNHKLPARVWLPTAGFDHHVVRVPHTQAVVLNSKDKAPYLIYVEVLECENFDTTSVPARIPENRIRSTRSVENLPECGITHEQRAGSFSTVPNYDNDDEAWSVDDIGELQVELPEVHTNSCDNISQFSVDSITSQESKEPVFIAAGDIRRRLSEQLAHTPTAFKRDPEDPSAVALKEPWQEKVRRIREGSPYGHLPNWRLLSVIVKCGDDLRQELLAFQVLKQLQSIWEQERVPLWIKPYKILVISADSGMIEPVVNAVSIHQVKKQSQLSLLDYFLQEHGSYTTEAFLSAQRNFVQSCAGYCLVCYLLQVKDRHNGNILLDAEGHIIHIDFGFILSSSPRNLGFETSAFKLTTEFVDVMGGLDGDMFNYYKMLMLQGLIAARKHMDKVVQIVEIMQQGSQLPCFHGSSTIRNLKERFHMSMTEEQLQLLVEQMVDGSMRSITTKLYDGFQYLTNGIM

[19] = molecular target: Phosphatidylinositol 4,5-bisphosphate 3-kinase catalytic subunit gamma isoform (Homo sapiens) (UniProt P48736); test: Inhibition of human PIK3CG expressed in mammalian expression system at 1 uM
[20] = molecular target: T2, Serine/threonine-protein kinase 17A (Homo sapiens) (UniProt Q9UEE5); test: Inhibition of human DRAK1 expressed in bacterial expression system at 10 uM
T2 sequence (whole entry): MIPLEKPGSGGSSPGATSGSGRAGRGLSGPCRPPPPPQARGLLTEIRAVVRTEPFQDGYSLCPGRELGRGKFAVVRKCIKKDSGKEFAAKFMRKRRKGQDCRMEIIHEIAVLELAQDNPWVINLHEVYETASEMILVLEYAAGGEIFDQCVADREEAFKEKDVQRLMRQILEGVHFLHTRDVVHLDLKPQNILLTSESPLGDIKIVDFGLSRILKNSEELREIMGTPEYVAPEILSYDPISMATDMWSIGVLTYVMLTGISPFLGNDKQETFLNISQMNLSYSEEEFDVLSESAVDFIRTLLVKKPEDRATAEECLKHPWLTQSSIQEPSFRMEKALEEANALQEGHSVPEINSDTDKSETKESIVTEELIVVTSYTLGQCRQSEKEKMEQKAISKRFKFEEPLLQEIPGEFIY

[21] = molecular target: T3, Serine/threonine-protein kinase 17B (Homo sapiens) (UniProt O94768); test: Inhibition of human DRAK2 expressed in bacterial expression system at 10 uM
T3 sequence (whole entry): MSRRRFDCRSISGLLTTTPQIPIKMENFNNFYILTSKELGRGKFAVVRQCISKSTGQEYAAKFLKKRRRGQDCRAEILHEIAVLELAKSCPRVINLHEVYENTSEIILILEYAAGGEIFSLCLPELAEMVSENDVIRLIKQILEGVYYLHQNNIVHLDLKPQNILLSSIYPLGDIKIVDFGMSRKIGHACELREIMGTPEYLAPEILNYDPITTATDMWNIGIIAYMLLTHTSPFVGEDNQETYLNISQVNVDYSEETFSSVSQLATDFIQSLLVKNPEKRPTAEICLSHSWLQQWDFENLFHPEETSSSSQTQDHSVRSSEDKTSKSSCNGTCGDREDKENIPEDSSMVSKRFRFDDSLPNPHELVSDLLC

[22] = molecular target: T1, Dual specificity tyrosine-phosphorylation-regulated kinase 1A; test: Inhibition of human DYRK1A expressed in HEK293 cells assessed as […] at 1 uM by NFAT response element-driven luciferase reporter gene assay relative to harmine; assay type: cell-based
[23] = molecular target: Mitogen-activated protein kinase 7 (Homo sapiens) (UniProt Q13164); test: Inhibition of human ERK5 expressed in bacterial expression system at 10 uM
Mitogen-activated protein kinase 7 (Homo sapiens), sequence (Q13164 2-816 limits assumed): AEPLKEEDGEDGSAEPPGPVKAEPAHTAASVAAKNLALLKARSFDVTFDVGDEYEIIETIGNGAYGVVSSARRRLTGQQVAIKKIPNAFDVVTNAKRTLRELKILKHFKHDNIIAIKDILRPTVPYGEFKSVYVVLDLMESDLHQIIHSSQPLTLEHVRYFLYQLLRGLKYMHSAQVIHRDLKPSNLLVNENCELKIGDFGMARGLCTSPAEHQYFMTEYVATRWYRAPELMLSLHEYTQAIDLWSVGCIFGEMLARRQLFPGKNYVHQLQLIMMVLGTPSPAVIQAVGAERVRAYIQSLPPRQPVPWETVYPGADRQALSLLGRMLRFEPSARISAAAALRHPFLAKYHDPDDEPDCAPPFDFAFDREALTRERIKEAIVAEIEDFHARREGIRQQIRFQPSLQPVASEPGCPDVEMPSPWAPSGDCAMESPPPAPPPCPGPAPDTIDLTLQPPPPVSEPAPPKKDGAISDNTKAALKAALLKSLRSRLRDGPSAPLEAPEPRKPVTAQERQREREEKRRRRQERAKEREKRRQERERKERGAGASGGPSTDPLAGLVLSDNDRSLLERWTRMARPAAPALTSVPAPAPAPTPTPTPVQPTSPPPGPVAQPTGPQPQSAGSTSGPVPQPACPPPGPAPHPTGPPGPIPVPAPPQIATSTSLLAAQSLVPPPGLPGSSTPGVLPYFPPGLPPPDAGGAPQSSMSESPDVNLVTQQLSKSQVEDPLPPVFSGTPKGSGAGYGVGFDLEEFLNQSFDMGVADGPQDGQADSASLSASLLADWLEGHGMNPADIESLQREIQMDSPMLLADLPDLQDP

[24] = molecular target: Tyrosine-protein kinase ABL1 (Homo sapiens) (UniProt P00519); test: Inhibition of human ABL1 at 10 uM
Tyrosine-protein kinase ABL1 (Homo sapiens), sequence (P00519 whole entry): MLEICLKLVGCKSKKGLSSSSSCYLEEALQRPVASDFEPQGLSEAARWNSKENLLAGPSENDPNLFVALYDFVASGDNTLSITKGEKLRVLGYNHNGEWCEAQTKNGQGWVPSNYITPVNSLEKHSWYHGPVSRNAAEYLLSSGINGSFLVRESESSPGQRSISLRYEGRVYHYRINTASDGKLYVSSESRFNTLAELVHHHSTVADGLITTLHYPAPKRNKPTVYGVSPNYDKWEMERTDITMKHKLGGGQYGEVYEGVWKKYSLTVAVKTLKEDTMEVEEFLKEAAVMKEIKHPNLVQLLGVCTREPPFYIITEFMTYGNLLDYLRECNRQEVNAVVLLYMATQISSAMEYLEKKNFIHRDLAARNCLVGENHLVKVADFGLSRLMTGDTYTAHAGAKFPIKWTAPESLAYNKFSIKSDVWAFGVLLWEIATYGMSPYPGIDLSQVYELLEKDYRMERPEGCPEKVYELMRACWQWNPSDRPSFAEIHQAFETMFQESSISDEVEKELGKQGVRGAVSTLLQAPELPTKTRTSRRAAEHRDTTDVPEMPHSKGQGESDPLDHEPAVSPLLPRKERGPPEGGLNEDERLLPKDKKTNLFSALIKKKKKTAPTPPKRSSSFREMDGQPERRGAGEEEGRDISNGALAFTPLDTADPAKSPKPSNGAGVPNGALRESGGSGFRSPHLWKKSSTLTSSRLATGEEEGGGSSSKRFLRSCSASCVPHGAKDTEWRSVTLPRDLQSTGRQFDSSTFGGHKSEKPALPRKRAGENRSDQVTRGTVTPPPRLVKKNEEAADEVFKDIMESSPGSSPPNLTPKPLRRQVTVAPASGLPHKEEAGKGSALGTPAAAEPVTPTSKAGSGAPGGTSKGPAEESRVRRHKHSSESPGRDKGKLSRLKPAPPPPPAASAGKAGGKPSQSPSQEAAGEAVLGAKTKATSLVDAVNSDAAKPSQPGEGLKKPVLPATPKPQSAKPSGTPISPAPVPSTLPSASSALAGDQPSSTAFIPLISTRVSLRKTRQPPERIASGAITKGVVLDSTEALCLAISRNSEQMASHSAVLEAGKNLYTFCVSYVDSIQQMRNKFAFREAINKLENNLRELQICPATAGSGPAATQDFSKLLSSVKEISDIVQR

[25] = molecular target: Platelet-derived growth factor receptor beta (Homo sapiens) (UniProt P09619); test: Inhibition of human PDGFRbeta expressed in bacterial expression system at 10 uM
[26] = molecular target: Platelet-derived growth factor receptor alpha (Homo sapiens) (UniProt P16234); test: Inhibition of human PDGFRalpha expressed in mammalian expression system at 10 uM

Dual specificity protein kinase CLK2 (Homo sapiens), sequence (P49760 whole entry, looked up): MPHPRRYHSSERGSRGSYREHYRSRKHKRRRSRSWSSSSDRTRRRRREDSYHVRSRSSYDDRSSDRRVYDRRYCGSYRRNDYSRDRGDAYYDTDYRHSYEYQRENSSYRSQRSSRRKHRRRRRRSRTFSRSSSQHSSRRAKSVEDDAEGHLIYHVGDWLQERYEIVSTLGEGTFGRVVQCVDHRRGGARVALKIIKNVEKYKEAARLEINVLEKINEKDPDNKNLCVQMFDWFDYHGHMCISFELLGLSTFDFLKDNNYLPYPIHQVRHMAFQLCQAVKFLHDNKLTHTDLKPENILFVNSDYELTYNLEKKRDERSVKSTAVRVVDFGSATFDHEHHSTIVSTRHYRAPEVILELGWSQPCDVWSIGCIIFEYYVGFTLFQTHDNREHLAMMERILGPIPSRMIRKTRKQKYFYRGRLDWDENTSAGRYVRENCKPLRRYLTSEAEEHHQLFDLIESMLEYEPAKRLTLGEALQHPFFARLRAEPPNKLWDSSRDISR

| inhibition [1] | Activity [2] [%] | inhibition [3] | Activity [4] | IC50 ([5]; read-out: IC50) [nM] | Ki ([5]; read-out: Ki) [nM] | Structure (SMILES) | further results |
| --- | --- | --- | --- | --- | --- | --- | --- |
| Active | 4 | Dose-dependent effect | inactive | 1200 | 575 | C=CC(=O)Nc1ccc(C(=O)c2sc(Nc3ccc(N4CCN(C)CC4)cc3OC)nc2N)cc1 | – |
| Active | – | Active | – | – | – | C=CC(=O)Nc1cccc(C(=O)c2sc(Nc3ccc(N4CCN(C)CC4)cc3)nc2N)c1 | IC50 [5]: Nd(Insoluble); Ki [5]: Nd(Insoluble) |
| Active | 24 | Active | 5 to 10 µM | > 6000 | > 2800 | COc1ccc(N)cc1-c1cnc(N)c(C(=O)c2cccnc2)n1 | inhibition [6]: Active; inhibition [7]: Active; inhibition [8]: Active; inhibition [9]: Active |
| – | 0 | Dose-dependent effect | 5 to 10 µM | 329 | 158 | Nc1cccc(-c2cnc3[nH]cc(-c4cccnc4)c3c2)c1 | – |
| – | 2 | Active | 0.05 to 0.1 µM | 532 | 252 | O=c1ccc2cnc3ccc(-c4cn[nH]c4)cc3c2n1-c1ccc(F)cc1C(F)(F)F | inhibition [10]: Active; inhibition [11]: Active; inhibition [12]: Active; inhibition [13]: Active; inhibition [14]: Active; fold change (FC) [15]: 2; inhibition [16]: Active; inhibition [17]: Active; inhibition [18]: Active; inhibition [19]: Active |
| – | 15 | Active | 0.5 to 1 µM | 4200 | 2020 | CN1C(=O)[C@H]2CCC[C@H]2N(C2CCCC2)c2nc(Nc3ccc(C(N)=O)cc3)ncc21 | inhibition [20]: Active; inhibition [21]: Active; fold change (FC) [22]: 2; inhibition [23]: Active |
| Active | 11 | Active | > 20 µM | 3500 | 1680 | O=C(NCCN1CCOCC1)Nc1cccc(-c2ccc3nc(NC(=O)C4CC4)sc3n2)c1 | inhibition [24]: Active; inhibition [25]: Active; inhibition [26]: Active |
| – | 0 | Dose-dependent effect | 1 to 5 µM | 216 | 104 | NS(=O)(=O)c1ccc(-c2cnc3[nH]cc(-c4cccnc4)c3c2)cc1 | inhibition [4]: Dose-dependent effect |
| – | 1.3 | Dose-dependent effect | 10 to 20 µM | 800 | 383 | COc1cc(N2CCN(C)CC2)ccc1Nc1nc(N)c(C(=O)c2ccccc2)s1 | – |
